Assay results: publication PMC3511435, “A Transposon-Derived DNA Polymerase from Entamoeba histolytica Displays Intrinsic Strand Displacement, Processivity and Lesion Bypass” (PLoS ONE, 2012)

System: T1, EhDNApolB2
T1 construct: N-terminal 153 residues deleted, 660-aa C-terminal exonuclease and polymerase region, pCOLD I vector (IMAC-purified), E. coli BL21 DE3 Rosetta II, 78 kDa
Experiment: primer extension on M13mp18 ssDNA, denaturing gel, phosphorimaging
Type: biochemical, Entamoeba histolytica
Conditions: 25 µM dNTPs; 1 nM 32P-labelled 17mer primer / circular M13mp18 ssDNA; 20 nM enzyme; 10 min, 37 °C; read-out: reduced by half at a concentration of

C[C@@]1(CO)[C@H](O)CC[C@@]2(C)[C@H]1CC[C@H]1C[C@@H]3C[C@@]12CC[C@]3(O)CO [aphidicolin]
IC50: 242 µM
